Measured values published in US9206423B2, “Methods of modulating compliance of the trabecular meshwork” (The Regents of the University of California, priority 2012, dated 2015).
“Also recorded” adds a separate entry of the source. Marks after values point to notes of the source that are not given here.

Key:
Assay type in all cases: cell-based, human
[1] = tested on: YAP mRNA; test: Relative quantitative PCR for YAP mRNA in primary HTM cells on hydrogels or TCP after Lat-B; conditions: for Relative quantification of YAP mRNA (mean ± SEM): 2 μM Lat-B, 1 h after treatment, TCP DMSO = 1.0; for YAP mRNA expression versus DMSO: HTM 424 donor (FIG. 8)
Method: (§1) Hydrogel Fabrication. Polyacrylamide hydrogels mimicking the stiffness of the normal (5 kPa) and glaucomatous (75 kPa) HTM were prepared utilizing previously described procedures (McKee et al., 2011; Wood et al., 2011b). Briefly, hydrogels were fabricated and then sterilized with ultraviolet light and rinsed every 24 hours for at least 72 hours in Dulbecco's phosphate buffered solution (DPBS, Hyclone, Logan, Utah) to fully hydrate the hydrogels and to ensure removal of monomeric acrylamide since free acrylamide has been previously shown to disrupt cytoskeletal structure (Arocena, 2006). Following hydration, the hydrogels (10 mm) were adhered to TCP, stored in HTM cell medium, DME/F-12 medium containing 2.5 mM L-glutamine supplemented with 1% penicillin-streptomycin with amphotericin b (Lonza, Walkerville, Md.) and 10% fetal bovine serum (Atlanta Biologicals, Lawrence, Ga.), for 24 hrs and coated with a proprietary fibronectin/collagen (FNC) mixture (AthenaES, Baltimore, Md.) for 20 minutes. The elastic modulus of the hydrogels used were previously validated with atomic force microscopy at 4±2 kPa and 71±5 kPa for the 5 and 75 kPa gels respectively (McKee et al., 2011; Radmacher et al., 1992).
(§2) HTM Cell Isolation and Culture. Primary HTM cells were isolated from corneoscleral rims considered unsuitable for transplant from donors with no prior history of ophthalmic disease as previously described (McKee et al., 2011; Rhee et al., 2003; Wood et al., 2011b). Isolated cells were cultured in HTM cell medium and all studies were conducted using cells prior to the eighth passage. HTM cells were plated at a density of 1.5 ×105 on FNC-coated TCP and 75 kPa hydrogels and 2.5×105 on FNC-coated 5 kPa hydrogels for 24 h prior to Lat-B treatment. The 5 kPa hydrogels were plated a higher density than the other substrates because HTM cells proliferate more slowly on the 5 kPa hydrogels (Wood et al., 2011a), and to ensure that there was enough mRNA present to perform PCR.
(§3) Latrunculin-B Treatment. Lyophilized Lat-B (Cal Biochem, La Jolla, Calif.) was re-suspended to a final concentration of 2.5 mM in dimethyl sulfoxide (DMSO) (Fisher, Pittsburgh, Pa.). Fresh solutions of 2.0 μM Lat-B were prepared in serum free DPBS for all experiments. Control samples were treated with an equivalent concentration of DMSO in serum free DPBS.
(§4) RNA Extraction and Quantitative Real-Time PCR. One hour after treatment with Lat-B or DMSO, RNA was extracted using the Qiagen RNeasy kit following the manufacturer's protocol (Qiagen, Valencia, Calif.). […] The cycle threshold (Ct) ranges were 11-22 for 18S, 23-27 for YAP, 23-34 for WWTR1, 27-32 for 14-3-3σ, 21-30 for CTGF and 17-23 for PAI-1. The 18S ribosomal RNA served as a reference. […] In order to control for slight variations in the amount of RNA loaded into the PCR reactions, the difference in cycle threshold (ΔCt) between the gene of interest (e.g. YAP) and the average cycle threshold (Ct) of the house keeping gene, 18S (ran in triplicate) were calculated. By calculating the difference in ΔCt between an experimental condition and the control condition (TCP DMSO), the experimental data was normalized to the control data. Ratios with respect to this control were calculated for all other values. The protein TAZ is encoded by the WWTR1 gene, for ease of reading, the mRNA obtained from the WWTR1 gene is designated as TAZ mRNA.

[2] = tested on: 14-3-3σ mRNA; test: Relative quantitative PCR for 14-3-3σ mRNA in primary HTM cells on hydrogels or TCP after Lat-B; conditions: for Relative quantification of 14-3-3σ mRNA (mean ± SEM): 2 μM Lat-B, 1 h after treatment, TCP DMSO = 1.0; for 14-3-3σ mRNA expression versus DMSO: HTM 424 donor (FIG. 11); for level of 14-3-3σ mRNA: Example 3 (FIG. 16)
Method: as §1, §2, §3, §4

[3] = tested on: TAZ mRNA; test: qPCR for TAZ (WWTR1) mRNA in primary HTM cells after Lat-B
Method: (§5) Hydrogel Fabrication. Polyacrylamide hydrogels mimicking the stiffness of the normal (5 kPa) and glaucomatous (75 kPa) HTM were prepared utilizing previously described procedures (McKee et al., 2011; Wood et al., 2011b). Briefly, hydrogels were fabricated and then sterilized with ultraviolet light and rinsed every 24 hours for at least 72 hours in Dulbecco's phosphate buffered solution (DPBS, Hyclone, Logan, Utah) to fully hydrate the hydrogels and to ensure removal of monomeric acrylamide since free acrylamide has been previously shown to disrupt cytoskeletal structure (Arocena, 2006). […]
(§6) RNA Extraction and Quantitative Real-Time PCR. […] In order to control for slight variations in the amount of RNA loaded into the PCR reactions, the difference in cycle threshold (ΔCt) between the gene of interest (e.g. YAP) and the average cycle threshold (Ct) of the house keeping gene, 18S (ran in triplicate) were calculated. […] Ratios with respect to this control were calculated for all other values. The protein TAZ is encoded by the WWTR1 gene, for ease of reading, the mRNA obtained from the WWTR1 gene is designated as TAZ mRNA.

[4] = tested on: CTGF mRNA; test: qPCR for CTGF mRNA in primary HTM cells after Lat-B; conditions: stiff (75 kPa) hydrogels, 3 donors, p=0.02
Method: as §5, §6

[5] = tested on: PAI-1 mRNA; test: qPCR for PAI-1 mRNA in primary HTM cells after Lat-B; conditions: 75 kPa hydrogels, all 3 donors
Method: as §5, §6

[6] = tested on: YAP; test: YAP immunofluorescence, nuclear/cytoplasmic localization in HTM cells after Lat-B; conditions: Lat-B vs DMSO, one hour after treatment
Method: Fixation and Immunofluoresence. One hour after treatment with Lat-B or DMSO, the cells were rinsed twice with warm DPBS and fixed in warm DPBS with 4% paraformaldehyde (Sigma-Aldrich, St. Louis, Mo.) for 20 min. They were rinsed twice more and permeabilized in DPBS with 0.5% Triton-X100 (Sigma-Aldrich, St. Louis, Mo.). They were rinsed and stored in DPBS until staining Rabbit anti-YAP (H-125, Santa Cruz Biotechnology, Santa Cruz, Calif.) was diluted in PBS containing 0.2% A-type cold fish gelatin (Sigma-Aldrich, St. Louis, Mo.) as a blocking agent. After primary staining, cells were rinsed twice in PBS. Dylight 594-conjugated goat anti-rabbit IgG (Thermo Scientific Pierce, Rockford, Ill.) was similarly diluted. After secondary staining, the cells were again rinsed, counterstained with DAPI (Life Technologies, Carlsbad, Calif.), rinsed a final time, and stored in PBS for imaging. Cells were imaged on an Axiovert 200 M (Carl Zeiss AG, Oberkochen, Germany) inverted microscope with a 20× objective. To mitigate background signal, images were filtered with a 77.5 μm rolling ball background and local median filtering (ImageJ, NIH, Bethesda, Md.).

[7] = tested on: myocilin (MYOC) mRNA; test: Myocilin mRNA in HTM cells on hydrogels or TCP after Lat B
Method: (§7) Materials and methods similar to those in Examples 1 and 2 were used. Alternatively or additionally, at least some of the following methods were or can be used for the experiments described hereafter.
(§8) Cell Culture. Primary HTM cells is obtained from normal human donor corneoscleral rims deemed not suitable for transplant (50). HTM cells are cultured in DMEM/F12 medium with 10% fetal bovine serum. Only cells before the 7th passage are used to conduct these studies. Only normal HTM cells are used because growth of cells from glaucomatous HTM is generally not robust enough to guarantee a successful completion of the experiment (51-54). Cells are plated onto hydrogels with Young's moduli of 5 kPa (homeomimetic) or 75 kPa (pathomimetic) that are fabricated to fit in a single well of a standard 6 well culture plate with 300,000 cells per surface. The cells are allowed to attach to the surfaces for 24 hours prior to subsequent experimentation.
(§9) Fabrication of Hydrogel Substrates. Hydrogels are composed of 5.8% acrylamide/0.2% bisacrylamide (5 kPa) or 17.4% acrylamide/0.6% bisacrylamide (75 kPa). Each of the gels contains 4% (v/v) acrylamidoisopropyl trimethyl ammonium chloride. After polymerization, the gels are stored in phosphate buffered saline for two days to allow maximal swelling. One day prior to seeding of the cells on the hydrogels, culture medium with 10% fetal bovine serum is added to the gel to allow the hydrogel to be coated with the various proteins and components present in the serum. The Young's moduli of the hydrogels have been validated by atomic force microscopy (14, 55).
(§10) Real-Time PCR. Real-time PCR is conducted with 70 ng of mRNA using a StepOne PCR machine. Reverse transcription is done for 30 minutes at 50° C. and subsequent PCR is done for 40 cycles of 15 seconds at 95° C. and 1 minute at 60° C.

[8] = tested on: SPARC mRNA; test: SPARC mRNA in HTM cells on hydrogels or TCP after Lat B
Method: as §7, §8, §9, §10

[9] = HTM cells after Lat B treatment (Example 3)
[10] = homeo- and pathomimetic hydrogels, Lat B 30 minutes, seven hours recovery, listed as Lat B
[11] = homeo- and pathomimetic hydrogels, Lat B 30 minutes, seven hours recovery, listed as Latrunculin B
[12] = tissue culture plastic (GPa), after Lat B treatment

C/C1=C/C(=O)O[C@@H]2C[C@@H](CC[C@H](C)/C=C\CC1)O[C@@](O)([C@@H]1CSC(=O)N1)C2 [Lat-B, Latrunculin-B]
YAP mRNA versus DMSO ([1]; 75 kPa hydrogels, one hour after treatment, all three donors, p<0.05): significantly less | Relative quantification of YAP mRNA (mean ± SEM) ([1]; HTM 211 cells, 5 kPa hydrogel): 0.33 ± 0.01^a ^ | Relative quantification of YAP mRNA (mean ± SEM) ([1]; HTM 211 cells, 75 kPa hydrogel): 0.06 ± 0.01^b, † | Relative quantification of YAP mRNA (mean ± SEM) ([1]; HTM 211 cells, TCP (>1 GPa)): 0.48 ± 0.0^c, † | Relative quantification of YAP mRNA (mean ± SEM) ([1]; HTM 424 cells, 5 kPa hydrogel): 0.79 ± 0.06^a, † | Relative quantification of YAP mRNA (mean ± SEM) ([1]; HTM 424 cells, 75 kPa hydrogel): 0.59 ± 0.05^a, † | Relative quantification of YAP mRNA (mean ± SEM) ([1]; HTM 424 cells, TCP (>1 GPa)): 1.3 ± 0.39^a | Relative quantification of YAP mRNA (mean ± SEM) ([1]; HTM 431 cells, 5 kPa hydrogel): 1.6 ± 0.01^a, † | Relative quantification of YAP mRNA (mean ± SEM) ([1]; HTM 431 cells, 75 kPa hydrogel): 0.83 ± 0.05^b, † | Relative quantification of YAP mRNA (mean ± SEM) ([1]; HTM 431 cells, TCP (>1 GPa)): 0.55 ± 0.02^c, † | decrease of YAP mRNA levels [1, 9]: 1.8 fold | YAP mRNA expression versus DMSO ([1]; cells grown on TCP): did not have significantly different | YAP mRNA expression versus DMSO ([1]; cells grown on hydrogels): significantly less | Relative quantification of 14-3-3σ mRNA (mean ± SEM) ([2]; HTM 211 cells, 5 kPa hydrogel): 15 ± 0.82^a | Relative quantification of 14-3-3σ mRNA (mean ± SEM) ([2]; HTM 211 cells, 75 kPa hydrogel): 29 ± 1.8^b, † | Relative quantification of 14-3-3σ mRNA (mean ± SEM) ([2]; HTM 211 cells, TCP (>1 GPa)): 1.2 ± 0.25^c | Relative quantification of 14-3-3σ mRNA (mean ± SEM) ([2]; HTM 424 cells, 5 kPa hydrogel): 4.8 ± 0.12^a, † | Relative quantification of 14-3-3σ mRNA (mean ± SEM) ([2]; HTM 424 cells, 75 kPa hydrogel): 5.6 ± 0.51^a, † | Relative quantification of 14-3-3σ mRNA (mean ± SEM) ([2]; HTM 424 cells, TCP (>1 GPa)): 0.73 ± 0.20^b ^ | Relative quantification of 14-3-3σ mRNA (mean ± SEM) ([2]; HTM 431 cells, 5 kPa hydrogel): 1.09 ± 0.02^a ^ | Relative quantification of 14-3-3σ mRNA (mean ± SEM) ([2]; HTM 431 cells, 75 kPa hydrogel): 1.57 ± 0.11^b, † | Relative quantification of 14-3-3σ mRNA (mean ± SEM) ([2]; HTM 431 cells, TCP (>1 GPa)): 0.53 ± 0.02^c, † | 14-3-3σ mRNA expression versus DMSO ([2]; cells grown on TCP): did not have significantly different | 14-3-3σ mRNA expression versus DMSO ([2]; cells grown on hydrogels): significantly more | level of 14-3-3σ mRNA ([2]; softer (homeomimetic) hydrogels): no effect | level of 14-3-3σ mRNA ([2]; stiffer (pathomimetic) hydrogels, listed as Lat B): increased | level of 14-3-3σ mRNA ([2]; stiffer (pathomimetic) hydrogels, listed as Latrunculin B): doubled | 14-3-3σ expression versus DMSO ([2]; stiffer hydrogels, all three donors (HTM 211, 424, 431)): markedly increased | decrease of TAZ mRNA levels [3, 9]: 1.9 fold | TAZ mRNA versus DMSO ([3]; stiff (75 kPa) hydrogels, 3 donors, P=0.11): trend towards less; also recorded: markedly less | CTGF mRNA expression versus DMSO [4]: significantly decreased; also recorded: significantly less | PAI-1 mRNA expression versus DMSO [5]: less and decreased | YAP in the nucleus (nuclear localization) ([6]; 5 kPa hydrogel): dramatic reduction | YAP nuclear localization ([6]; TCP): some nuclear localization remained | MYOC mRNA levels [7, 10]: significantly reduced | MYOC mRNA levels [7, 11]: significantly decreased | MYOC mRNA levels [7, 12]: no change | SPARC mRNA levels [8, 10]: significantly reduced | SPARC mRNA levels [8, 11]: significantly decreased | SPARC mRNA levels [8, 12]: no change
